Test results taken from US11787775B2, “Therapeutic compounds and methods of use” (priority 2020, dated 2023).
Read-outs that look alike come from different tables or passages of the source.

What was measured:
Test in all cases: TEAD lipid pocket TR-FRET (Lipid HTRF) probe competition assay
Type in all cases: binding
TEAD4 = TEAD4 (Homo sapiens (Human), UniProt Q15561)
Procedure: (§1) His-tagged TEAD proteins are pre-incubated with TEAD project compounds for 30 minutes or 4 hours at room temperature. Biotinylated lipid pocket probes are then added to the TEAD/Compound mixture and incubated for 60 minutes at room temperature. The lipid pocket probe competes with the test compound for the TEAD lipid pocket until equilibrium is reached. After 60 minutes, Europium labelled anti-His (Perkin Elmer #ADO 110) and XL665 labelled streptavidin (CIS Bio 610SAXAC) are added to the TEAD/test compound/lipid pocket mixture and incubated for 30 minutes or 4 hours. […] If a TEAD lipid pocket binder such as binds and displaces the lipid pocket probe, the disruption of the TEAD:probe interaction results in a decrease in TR-FRET signal. The potency of compounds as TEAD lipid pocket binders is determined by IC50 value generated using a non-linear 4 parameter curve fit.
(§2) Note that the “Compound Number” in Table 2 and Table 3 corresponds to the “Compound Number” in Table 1.

TEAD1 = TEAD1 (Homo sapiens (Human), UniProt P28347)
Chain of TEAD1 (P28347 whole entry, species assumed): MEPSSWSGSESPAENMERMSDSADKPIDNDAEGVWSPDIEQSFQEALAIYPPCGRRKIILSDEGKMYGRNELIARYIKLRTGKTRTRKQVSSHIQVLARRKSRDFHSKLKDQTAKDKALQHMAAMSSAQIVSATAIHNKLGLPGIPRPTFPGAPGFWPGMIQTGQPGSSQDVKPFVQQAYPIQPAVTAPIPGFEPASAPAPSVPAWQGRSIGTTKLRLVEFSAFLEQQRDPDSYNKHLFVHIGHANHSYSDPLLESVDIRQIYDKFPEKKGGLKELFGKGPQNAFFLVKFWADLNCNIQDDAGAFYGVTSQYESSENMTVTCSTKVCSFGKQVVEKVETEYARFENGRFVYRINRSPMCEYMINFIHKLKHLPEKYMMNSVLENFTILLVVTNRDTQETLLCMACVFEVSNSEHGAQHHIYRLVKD
Procedure: as §1, §2

TEAD2 = TEAD2 (Homo sapiens (Human), UniProt Q15562)
Chain of TEAD2 (Q15562 whole entry): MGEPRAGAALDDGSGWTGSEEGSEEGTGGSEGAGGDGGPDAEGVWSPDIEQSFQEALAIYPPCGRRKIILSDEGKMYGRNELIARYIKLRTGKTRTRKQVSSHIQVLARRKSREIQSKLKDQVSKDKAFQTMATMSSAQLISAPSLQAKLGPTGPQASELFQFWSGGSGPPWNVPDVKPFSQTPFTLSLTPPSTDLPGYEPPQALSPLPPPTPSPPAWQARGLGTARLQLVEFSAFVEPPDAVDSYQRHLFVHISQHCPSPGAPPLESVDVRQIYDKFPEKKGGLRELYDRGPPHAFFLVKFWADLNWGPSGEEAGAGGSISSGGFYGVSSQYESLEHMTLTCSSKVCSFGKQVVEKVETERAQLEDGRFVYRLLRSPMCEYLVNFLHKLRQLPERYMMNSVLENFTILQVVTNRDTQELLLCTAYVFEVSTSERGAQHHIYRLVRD
Procedure: as §1, §2

TEAD3 = TEAD3 (Homo sapiens (Human), UniProt Q99594); conditions: 4 hours incubation with compound
Chain of TEAD3 (Q99594 whole entry, species assumed): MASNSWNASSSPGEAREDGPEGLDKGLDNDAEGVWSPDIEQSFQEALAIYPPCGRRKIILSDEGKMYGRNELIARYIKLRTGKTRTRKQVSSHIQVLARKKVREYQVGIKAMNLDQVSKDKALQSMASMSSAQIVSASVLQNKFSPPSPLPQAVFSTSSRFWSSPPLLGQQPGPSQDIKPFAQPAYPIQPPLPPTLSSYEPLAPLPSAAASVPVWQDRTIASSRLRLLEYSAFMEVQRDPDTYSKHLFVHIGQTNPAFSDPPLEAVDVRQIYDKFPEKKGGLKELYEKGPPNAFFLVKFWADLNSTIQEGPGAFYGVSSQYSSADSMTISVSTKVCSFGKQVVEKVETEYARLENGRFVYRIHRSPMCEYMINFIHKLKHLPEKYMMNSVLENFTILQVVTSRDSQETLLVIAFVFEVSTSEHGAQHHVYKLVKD
Procedure: as §1, §2

[1] = 4 hours incubation with compound, read-out: Lipid HTRF TEAD4 IC50
[2] = 4 hours incubation with compound, read-out: Lipid HTRF TEAD1 IC50
[3] = 4 hours incubation with compound, read-out: Lipid HTRF TEAD2 IC50
[4] = Lipid HTRF TEAD4 IC50, 4 hours incubation with compound

Chain of TEAD4 (Q15561 whole entry, species assumed): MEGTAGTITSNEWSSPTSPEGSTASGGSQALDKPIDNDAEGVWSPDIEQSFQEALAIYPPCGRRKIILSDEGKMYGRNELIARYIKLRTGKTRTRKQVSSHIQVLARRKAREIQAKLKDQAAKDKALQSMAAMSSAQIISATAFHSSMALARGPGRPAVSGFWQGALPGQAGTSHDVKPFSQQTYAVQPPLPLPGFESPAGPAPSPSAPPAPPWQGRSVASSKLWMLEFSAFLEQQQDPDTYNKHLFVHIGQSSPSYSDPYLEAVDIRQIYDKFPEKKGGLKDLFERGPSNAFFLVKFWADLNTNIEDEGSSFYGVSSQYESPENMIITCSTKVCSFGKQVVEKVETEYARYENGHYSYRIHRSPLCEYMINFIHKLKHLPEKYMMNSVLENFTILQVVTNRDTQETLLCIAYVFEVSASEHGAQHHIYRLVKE

| SMILES | IC50 (TEAD4; [1]) [nM] | IC50 (TEAD1; [2]) [nM] | IC50 (TEAD2; [3]) [nM] | IC50 (TEAD3) [nM] | IC50 (TEAD2; Lipid HTRF TEAD2 IC50, 4 hours incubation with compound) [nM] | IC50 (TEAD4; [4]) [nM] | IC50 (TEAD1; Lipid HTRF TEAD1 IC50, 4 hours incubation with compound) [nM] |
| --- | --- | --- | --- | --- | --- | --- | --- |
| C=C(CNc1cc(-c2ccc(OC(F)(F)F)cc2)c2c(c1C#N)CCO2)C(N)=O [Compound 44, 2-[[[4-cyano-7-[4-(trifluoromethoxy)phenyl]-2,3-dihydrobenzofuran-5-yl]amino]methyl]prop-2-enamide] | 140 | 110 | 40 | 1200 |  |  |  |
| [2H]C1([2H])Cc2c(C#N)c(NCC(=C)C(=O)NO)cc(-c3ccc(OC(F)(F)F)cc3)c2O1 [Compound 37, 2-[[[4-cyano-2,2-dideuterio-7-[4-(trifluoromethoxy)phenyl]-3H-benzofuran-5-yl]amino]methyl]prop-2-enehydroxamic acid] | 50 | 50 |  | 420 | 10 |  |  |
| C=C(CNc1cc(-c2ccc(OC(F)(F)F)cc2)c2c(c1CO)CCO2)C(=O)NO [Compound 46, 2-[[[4-(hydroxymethyl)-7-[4-(trifluoromethoxy)phenyl]-2,3-dihydrobenzofuran-5-yl]amino]methyl]prop-2-enehydroxamic acid] | 60 | 50 | 10 | 440 |  |  |  |
| C=C(CNc1cc(-c2ncc(C(C)C)s2)c2c(c1C#N)CCO2)C(=O)O [Compound 49, 2-[[[4-cyano-7-(5-isopropylthiazol-2-yl)-2,3-dihydrobenzofuran-5-yl]amino]methyl]prop-2-enoic acid] | 90 | 310 | 240 | 2800 |  |  |  |
| C=C(CNc1cc(-c2ccc(S(F)(F)(F)(F)F)cc2)c2c(c1C#N)CCO2)C(=O)NO [Compound 38, 2-[[[4-cyano-7-[4-(pentafluoro-lambda6-sulfanyl)phenyl]-2,3-dihydrobenzofuran-5-yl]amino]methyl]prop-2-enehydroxamic acid] | 80 | 90 | 30 | 710 |  |  |  |
| C=C(CNc1cc(-c2ccc(OC(F)(F)F)cc2)c2ncsc2c1C#N)C(=O)NO [Compound 41, 2-[[[7-cyano-4-[4-(trifluoromethoxy)phenyl]-1,3-benzothiazol-6-yl]amino]methyl]prop-2-enehydroxamic acid] | 40 | 80 | 10 | 660 |  |  |  |
| [2H]C1([2H])COc2c(-c3ccc(C(C)C)cc3)cc(NCC(=C)C(N)=O)c(C#N)c21 [Compound 33, 2-[[[4-cyano-3,3-dideuterio-7-(4-isopropylphenyl)-2H-benzofuran-5-yl]amino]methyl]prop-2-enamide] |  | 180 | 60 | 1400 |  | 80 |  |
| [2H]C1([2H])COc2c(-c3ccc(C(C)C)cc3)cc(NCC(=C)C(=O)O)c(C#N)c21 [Compound 40, 2-[[[4-cyano-3,3-dideuterio-7-(4-isopropylphenyl)-2H-benzofuran-5-yl]amino]methyl]prop-2-enoic acid] |  |  | 40 | 680 |  | 20 | 20 |
| C=C(CNc1cc(-c2ccc(OC(F)(F)F)cc2)c2c(c1CO)CCO2)C(N)=O [Compound 35, 2-[[[4-(hydroxymethyl)-7-[4-(trifluoromethoxy)phenyl]-2,3-dihydrobenzofuran-5-yl]amino]methyl]prop-2-enamide] | 250 | 160 | 30 | 1700 |  |  |  |
| C=C(CNc1cc(-c2ccc(S(F)(F)(F)(F)F)cc2)c2c(c1C#N)CCO2)C(=O)O [Compound 45, 2-[[[4-cyano-7-[4-(pentafluoro-lambda6-sulfanyl)phenyl]-2,3-dihydrobenzofuran-5-yl]amino]methyl]prop-2-enoic acid] | 80 | 30 | 170 | 920 |  |  |  |
| C=C(CNc1cc(-c2cc(C(C)C)cs2)c2c(c1C#N)CCO2)C(=O)O [Compound 32, 2-[[[4-cyano-7-(4-isopropyl-2-thienyl)-2,3-dihydrobenzofuran-5-yl]amino]methyl]prop-2-enoic acid] | 10 | 10 | 40 | 430 |  |  |  |
| C=C(CNc1cc(-c2ccc(S(F)(F)(F)(F)F)cc2)c2c(c1C#N)CCO2)C(N)=O [Compound 48, 2-[[[4-cyano-7-[4-(pentafluoro-lambda6-sulfanyl)phenyl]-2,3-dihydrobenzofuran-5-yl]amino]methyl]prop-2-enamide] | 260 | 250 | 220 | 2600 |  |  |  |
| C=C(CNc1cc(-c2ccc(OC(F)(F)F)cc2)c2c(c1C#N)CCO2)C(=O)N(C)O [Compound 43, 2-[[[4-cyano-7-[4-(trifluoromethoxy)phenyl]-2,3-dihydrobenzofuran-5-yl]amino]methyl]-N-hydroxy-N-methyl-prop-2-enamide] | 520 | 400 | 1700 | 18000 |  |  |  |
| C=C(CNc1cc(-n2ccc(C(C)C)n2)c2c(c1C#N)CCO2)C(=O)NO [Compound 36, 2-[[[4-cyano-7-(3-isopropylpyrazol-1-yl)-2,3-dihydrobenzofuran-5-yl]amino]methyl]prop-2-enehydroxamic acid] | > 50000 | > 50000 | 710 | > 50000 |  |  |  |
| C=C(CNc1cc(-c2ccc(OC(F)(F)F)cc2)c2c(c1C#N)CCO2)C(=O)NO [Compound 39, 2-[[[4-cyano-7-[4-(trifluoromethoxy)phenyl]-2,3-dihydrobenzofuran-5-yl]amino]methyl]prop-2-enehydroxamic acid] | 60 | 40 | 10 | 400 |  |  |  |
| C=C(CNc1cc(-c2ncc(C(C)C)s2)c2c(c1C#N)CCO2)C(=O)NO [Compound 27, 2-[[[4-cyano-7-(5-isopropylthiazol-2-yl)-2,3-dihydrobenzofuran-5-yl]amino]methyl]prop-2-enehydroxamic acid] | 170 | 310 | 110 | > 50000 |  |  |  |
| [2H]C1([2H])COc2c(-c3ccc(C(C)C)cc3)cc(NCC(=C)C(=O)NO)c(C#N)c21 [Compound 29, 2-[[[4-cyano-3,3-dideuterio-7-(4-isopropylphenyl)-2H-benzofuran-5-yl]amino]methyl]prop-2-enehydroxamic acid] | 40 | 60 | 10 | 430 |  |  |  |
| C=C(CNc1cc(-c2nc(C(C)C)cs2)c2c(c1C#N)CCO2)C(=O)NO [Compound 31, 2-[[[4-cyano-7-(4-isopropylthiazol-2-yl)-2,3-dihydrobenzofuran-5-yl]amino]methyl]prop-2-enehydroxamic acid] | 36000 | > 50000 | 860 | > 50000 |  |  |  |
| C=C(CNc1cc(-c2ccc(S(F)(F)(F)(F)F)cc2)c2ncsc2c1C#N)C(=O)NO [Compound 51, 2-[[[7-cyano-4-[4-(pentafluoro-lambda6-sulfanyl)phenyl]-1,3-benzothiazol-6-yl]amino]methyl]prop-2-enehydroxamic acid] | 60 | 200 | 30 | 1200 |  |  |  |
